Measured values as given in the supplement of paper PMC10307832.

Assays:
Assay in all cases: relative viability (nuclei count vs DMSO), 5 days (fraction); higher = more cells survive
NCI-H522 = tested on: NCI-H522
How it was run: (§1)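 A single step with final 0.05% Triton X-100, 1% formaldehyde and 1 ug/ml Hoechst fixed the cells and stained nuclei 5 days after treatment. Lung cancer cell lines in 1536-well plates had been treated by pin tool the day after seeding with one drug alone or a fixed anchor-drug dose plus five library-drug doses (not always all listed) in √10 steps, and nuclei were counted on 4× images. Relative viability is the ratio of nuclei in treated wells to nuclei in vehicle wells, taken as the median of duplicate plates.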

LCLC-103H = tested on: LCLC-103H
How it was run: as §1

NCI-H727 = tested on: NCI-H727
How it was run: as §1

SK-MES-1 = tested on: SK-MES-1
How it was run: as §1

NCI-H1355 = tested on: NCI-H1355
How it was run: as §1

NCI-H1915 = tested on: NCI-H1915
How it was run: as §1

NCI-H520 = tested on: NCI-H520
How it was run: as §1

LXF-289 = tested on: LXF-289
How it was run: as §1

PC-14 = tested on: PC-14
How it was run: as §1

NCI-H322M = tested on: NCI-H322M
How it was run: as §1

NCI-H460 = tested on: NCI-H460
How it was run: as §1

Structure (SMILES): O=c1cc(N2CCOCC2)oc2c(-c3cccc4c3sc3ccccc34)cccc12 + CC(=O)Nc1cccc(-n2c(=O)n(C3CC3)c(=O)c3c(Nc4ccc(I)cc4F)n(C)c(=O)c(C)c32)c1 [Trametinib] (partner 0.02 µM)
- relative viability (NCI-H522; first compound 0.01 µM): 0.733
- relative viability (NCI-H522; first compound 0.03162 µM): 0.86
- relative viability (NCI-H522; first compound 0.1 µM): 0.793
- relative viability (NCI-H522; first compound 0.3162 µM): 0.684
- relative viability (NCI-H522; first compound 1 µM): 0.963
- relative viability (LCLC-103H; first compound 0.01 µM): 0.712
- relative viability (LCLC-103H; first compound 0.03162 µM): 0.698
- relative viability (LCLC-103H; first compound 0.1 µM): 0.678
- relative viability (LCLC-103H; first compound 0.3162 µM): 0.652
- relative viability (LCLC-103H; first compound 1 µM): 0.663
- relative viability (NCI-H727; first compound 0.01 µM): 0.38
- relative viability (NCI-H727; first compound 0.03162 µM): 0.372
- relative viability (NCI-H727; first compound 0.1 µM): 0.389
- relative viability (NCI-H727; first compound 0.3162 µM): 0.391
- relative viability (NCI-H727; first compound 1 µM): 0.37
- relative viability (SK-MES-1; first compound 0.01 µM): 0.546
- relative viability (SK-MES-1; first compound 0.03162 µM): 0.533
- relative viability (SK-MES-1; first compound 0.1 µM): 0.518
- relative viability (SK-MES-1; first compound 0.3162 µM): 0.516
- relative viability (SK-MES-1; first compound 1 µM): 0.48
- relative viability (NCI-H1355; first compound 0.01 µM): 0.435
- relative viability (NCI-H1355; first compound 0.03162 µM): 0.435
- relative viability (NCI-H1355; first compound 0.1 µM): 0.435
- relative viability (NCI-H1355; first compound 0.3162 µM): 0.409
- relative viability (NCI-H1355; first compound 1 µM): 0.399
- relative viability (NCI-H1915; first compound 0.01 µM): 0.32
- relative viability (NCI-H1915; first compound 0.03162 µM): 0.32
- relative viability (NCI-H1915; first compound 0.1 µM): 0.299
- relative viability (NCI-H1915; first compound 0.3162 µM): 0.3
- relative viability (NCI-H1915; first compound 1 µM): 0.3
- relative viability (NCI-H520; first compound 0.01 µM): 1.14
- relative viability (NCI-H520; first compound 0.03162 µM): 0.594
- relative viability (NCI-H520; first compound 0.1 µM): 0.768
- relative viability (NCI-H520; first compound 0.3162 µM): 0.717
- relative viability (NCI-H520; first compound 1 µM): 0.732
- relative viability (LXF-289; first compound 0.01 µM): 0.672
- relative viability (LXF-289; first compound 0.03162 µM): 0.629
- relative viability (LXF-289; first compound 0.1 µM): 0.662
- relative viability (LXF-289; first compound 0.3162 µM): 0.673
- relative viability (LXF-289; first compound 1 µM): 0.695
- relative viability (PC-14; first compound 0.01 µM): 0.843
- relative viability (PC-14; first compound 0.03162 µM): 0.744
- relative viability (PC-14; first compound 0.1 µM): 0.745
- relative viability (PC-14; first compound 0.3162 µM): 0.775
- relative viability (PC-14; first compound 1 µM): 0.832
- relative viability (NCI-H322M; first compound 0.01 µM): 0.494
- relative viability (NCI-H322M; first compound 0.03162 µM): 0.486
- relative viability (NCI-H322M; first compound 0.3162 µM): 0.495
- relative viability (NCI-H322M; first compound 1 µM): 0.494
- relative viability (NCI-H460; first compound 0.01 µM): 0.104
- relative viability (NCI-H460; first compound 0.03162 µM): 0.127
